Reference: patent US10681909B2, “Herbicidal triazoles” (FMC Corporation, priority 2014, dated 2020)

Legend:
[1] = test system: galium; assay: Test D postemergence; assay type: in vivo, Galium aparine; details: scale 0 to 100
From the text: (§1) Seeds of plant species selected from bluegrass (annual bluegrass, Poa annua), blackgrass (Alopecurus myosuroides), canarygrass (Phalaris minor), chickweed (common chickweed, Stellaria media), galium (catchweed bedstraw, Galium aparine), bromegrass, down (downy bromegrass, Bromus tectorum), Russian thistle (Salsola kali), field poppy (Papaver rhoeas), field violet (Viola arvensis), foxtail, green (green foxtail, Setaria viridis), deadnettle (henbit deadnettle, Lamium amplexicaule), ryegrass, Ital. (Italian ryegrass, Lolium multiflorum), kochia (Kochia scoparia), lambsquarters (Chenopodium album), oilseed rape (Brassica napus), pigweed (Amaranthus retroflexus), chamomile (scentless chamomile, Matricaria inodora), speedwell (bird's-eye speedwell, Veronica persica), barley, spring (spring barley, Hordeum vulgare), wheat, spring (spring wheat, Triticum aestivum), buckwheat, wild (wild buckwheat, Polygonum convolvulus), wild mustard (Sinapis arvensis), oat, wild (wild oat, Avena fatua), radish, wild (wild radish, Raphanus raphanistrum), […]), barley, winter (winter barley, Hordeum vulgare), and wheat, winter (winter wheat, Triticum aestivum) were planted into a silt loam soil and treated preemergence with test chemicals formulated in a non-phytotoxic solvent mixture which included a surfactant. At the same time, these species were planted in pots containing Sunshine Redi-Earth® planting medium comprising spaghnum peat moss, vermiculite, starter nutrients and dolomitic limestone and treated with postemergence applications of the test chemicals formulated in the same manner. Plants ranged in height from 2 to 18 cm (1- to 4-leaf stage). Treated plants and controls were maintained in a controlled growth environment for 14 to 21 d after which time all species were compared to controls and visually evaluated. […] A dash (-) response means no test result.

[2] = test system: canarygrass; assay: Test D postemergence; assay type: in vivo, Phalaris minor; details: scale 0 to 100
From the text: as §1

[3] = test system: ryegrass, Italian; assay: Test A postemergence; assay type: in vivo, Lolium multiflorum; details: 0 to 100 scale (0 no effect, 100 complete control), approx. 10 d
Summary of the method: (§2)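 Weed and crop species in loam–sand blend sprayed preemergence on soil or postemergence at 2–10 cm, one- to two-leaf stage, with chemicals in surfactant-containing solvent. Injury rated visually after ~10 d in greenhouse versus untreated controls on a 0–100 scale (100 = complete control).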

[4] = test system: canarygrass; assay: Test D preemergence; assay type: in vivo, Phalaris minor; details: for Plant response rating: Canarygrass: scale 0 to 100
From the text: as §1

[5] = test system: buckwheat, wild; assay: Test D postemergence; assay type: in vivo, Polygonum convolvulus; details: scale 0 to 100
From the text: as §1

[6] = test system: ragweed; assay: Test A preemergence; assay type: in vivo, Ambrosia elatior; details: 0 to 100 scale (0 no effect, 100 complete control)
Summary of the method: as §2

[7] = test system: chickweed; assay: Test D postemergence; assay type: in vivo, Stellaria media; details: scale 0 to 100
From the text: as §1

[8] = test system: wheat, spring; assay: Test D postemergence; assay type: in vivo, Triticum aestivum; details: scale 0 to 100
From the text: as §1

[9] = test system: wheat, winter; assay: Test D postemergence; assay type: in vivo, Triticum aestivum; details: scale 0 to 100
From the text: as §1

[10] = test system: oat, wild; assay: Test D postemergence; assay type: in vivo, Avena fatua; details: scale 0 to 100
From the text: as §1

[11] = test system: bluegrass; assay: Test D postemergence; assay type: in vivo, Poa annua; details: scale 0 to 100
From the text: as §1

[12] = test system: blackgrass; assay: Test C preemergence; assay type: in vivo, Alopecurus myosuroides; details: for Plant response rating (scale of 0 to 100 where 0 is no effect and 100 is complete control): Blackgrass, preemergence; for Blackgrass plant response rating (0 to 100): Preemergence, visual rating after 13 to 15 d
From the text: (§3) Seeds of plant species selected from blackgrass (Alopecurus myosuroides), ryegrass, Italian (Italian ryegrass, Lolium multiflorum), wheat (winter wheat, Triticum aestivum), galium (catchweed bedstraw, Galium aparine), corn (Zea mays), crabgrass, large (large crabgrass, Digitaria sanguinalis), foxtail, giant, (giant foxtail, Setaria faberii), johnsongrass (Sorghum halepense), lambsquarters (Chenopodium album), morningglory (Ipomoea coccinea), nutsedge, yellow (yellow nutsedge, Cyperus esculentus), pigweed (Amaranthus retroflexus), ragweed (common ragweed, Ambrosia elatior), soybean (Glycine max), barnyardgrass (Echinochloa crus-galli), oilseed rape (Brassica napus), waterhemp (common waterhemp, Amaranthus rudis), and velvetleaf (Abutilon theophrasti) were planted into a blend of loam soil and sand and treated preemergence with test chemicals formulated in a non-phytotoxic solvent mixture which included a surfactant. At the same time, plants selected from these crop and weed species and also chickweed (common chickweed, Stellaria media), oat, wild (wild oat, Avena fatua), and kochia (Kochia scoparia), were planted in pots containing Sunshine Redi-Earth® planting medium comprising spaghnum peat moss, vermiculite, starter nutrients and dolomitic limestone and treated with postemergence applications of test chemicals formulated in the same manner. Plants ranged in height from 2 to 18 cm (1- to 4-leaf stage) for postemergence treatments. […] A dash (-) response means no test result.

[13] = test system: pigweed; assay: Test C preemergence; assay type: in vivo, Amaranthus retroflexus; details: for Plant response rating (scale of 0 to 100 where 0 is no effect and 100 is complete control): Pigweed, preemergence; for Pigweed plant response rating (0 to 100): Preemergence, visual rating after 13 to 15 d
From the text: as §3

## COc1nc(-c2ccc(Cl)cc2)nn1Cc1ccnc(C(F)(F)F)c1 [Compound 28]
[1]; 16 g ai/ha
  Plant response rating: Galium: 65
[1]; 31 g ai/ha
  Plant response rating: Galium: 70
[1]; 62 g ai/ha
  Plant response rating: Galium: 75
[1]; 125 g ai/ha
  Plant response rating: Galium: 80
[2]; 16 g ai/ha
  Plant response rating: Canarygrass: 25
[2]; 31 g ai/ha
  Plant response rating: Canarygrass: 30
[2]; 62 g ai/ha
  Plant response rating: Canarygrass: 45
[2]; 125 g ai/ha
  Plant response rating: Canarygrass: 50
[3]; 125 g ai/ha
  Plant response rating, Ryegrass, Italian: 20
[3]; 500 g ai/ha
  Plant response rating, Ryegrass, Italian: 50
[4]; 16 g ai/ha, 0 is no effect, 100 is complete control
  Plant response rating (0 to 100), Canarygrass: 10
[4]; 31 g ai/ha
  Plant response rating: Canarygrass: 40
[4]; 62 g ai/ha
  Plant response rating: Canarygrass: 60
[4]; 125 g ai/ha
  Plant response rating: Canarygrass: 65
[5]; 16 g ai/ha
  Plant response rating: Buckwheat, Wild: 60
[5]; 31 g ai/ha
  Plant response rating: Buckwheat, Wild: 65
[5]; 62 g ai/ha
  Plant response rating: Buckwheat, Wild: 75
[5]; 125 g ai/ha
  Plant response rating: Buckwheat, Wild: 95
[6]; 125 g ai/ha
  Plant response rating, Ragweed: 10
[6]; 500 g ai/ha, approx. 10 d
  Plant response rating, Ragweed: 40
[7]; 16 g ai/ha
  Plant response rating: Chickweed: 65
[7]; 31 g ai/ha
  Plant response rating: Chickweed: 70
[7]; 62 g ai/ha
  Plant response rating: Chickweed: 70
[7]; 125 g ai/ha
  Plant response rating: Chickweed: 90
[8]; 16 g ai/ha
  Plant response rating: Wheat, Spring: 10
[8]; 31 g ai/ha
  Plant response rating: Wheat, Spring: 15
[8]; 62 g ai/ha
  Plant response rating: Wheat, Spring: 20
[8]; 125 g ai/ha
  Plant response rating: Wheat, Spring: 25
[9]; 16 g ai/ha
  Plant response rating: Wheat, Winter: 15
[9]; 31 g ai/ha
  Plant response rating: Wheat, Winter: 20
[9]; 62 g ai/ha
  Plant response rating: Wheat, Winter: 25
[9]; 125 g ai/ha
  Plant response rating: Wheat, Winter: 20
[10]; 16 g ai/ha
  Plant response rating: Oat, Wild: 30
[10]; 31 g ai/ha
  Plant response rating: Oat, Wild: 40
[10]; 62 g ai/ha
  Plant response rating: Oat, Wild: 45
[10]; 125 g ai/ha
  Plant response rating: Oat, Wild: 50
[11]; 16 g ai/ha
  Plant response rating: Bluegrass: 20
[11]; 31 g ai/ha
  Plant response rating: Bluegrass: 20
[11]; 62 g ai/ha
  Plant response rating: Bluegrass: 45
[11]; 125 g ai/ha
  Plant response rating: Bluegrass: 40

## CCc1nc(-c2ccc(C(F)(F)F)cc2)nn1Cc1ccnc(C(F)(F)F)c1 [Compound 1, 4-[[5-ethyl-3-[4-(trifluoromethyl)phenyl]-1H-1,2,4-triazol-1-yl]methyl]-2-(trifluoromethyl)pyridine]
[1]; 31 g ai/ha
  Plant response rating: Galium: 70
[1]; 62 g ai/ha
  Plant response rating: Galium: 70
[1]; 125 g ai/ha
  Plant response rating: Galium: 90
[1]; 250 g ai/ha
  Plant response rating: Galium: 90
[12]; 125 g ai/ha
  Plant response rating (scale of 0 to 100 where 0 is no effect and 100 is complete control): 80
[12]; 250 g ai/ha
  Plant response rating (scale of 0 to 100 where 0 is no effect and 100 is complete control): 85
[12]; 31 g ai/ha
  Blackgrass plant response rating (0 to 100): 5
[12]; 62 g ai/ha
  Blackgrass plant response rating (0 to 100): 75
[2]; 31 g ai/ha
  Plant response rating: Canarygrass: 15
[2]; 62 g ai/ha
  Plant response rating: Canarygrass: 20
[2]; 125 g ai/ha
  Plant response rating: Canarygrass: 35
[2]; 250 g ai/ha
  Plant response rating: Canarygrass: 65
[13]; 125 g ai/ha
  Plant response rating (scale of 0 to 100 where 0 is no effect and 100 is complete control): 100
[13]; 250 g ai/ha
  Plant response rating (scale of 0 to 100 where 0 is no effect and 100 is complete control): 100
[13]; 31 g ai/ha
  Pigweed plant response rating (0 to 100): 100
[13]; 62 g ai/ha
  Pigweed plant response rating (0 to 100): 100
[4]; 31 g ai/ha
  Plant response rating: Canarygrass: 5
[4]; 62 g ai/ha
  Plant response rating: Canarygrass: 30
[4]; 125 g ai/ha
  Plant response rating: Canarygrass: 60
[4]; 250 g ai/ha
  Plant response rating: Canarygrass: 100
[5]; 31 g ai/ha
  Plant response rating: Buckwheat, Wild: 60
[5]; 62 g ai/ha
  Plant response rating: Buckwheat, Wild: 80
[5]; 125 g ai/ha
  Plant response rating: Buckwheat, Wild: 100
[5]; 250 g ai/ha
  Plant response rating: Buckwheat, Wild: 100
[7]; 31 g ai/ha
  Plant response rating: Chickweed: 75
[7]; 62 g ai/ha
  Plant response rating: Chickweed: 80
[7]; 125 g ai/ha
  Plant response rating: Chickweed: 85
[7]; 250 g ai/ha
  Plant response rating: Chickweed: 90
[8]; 31 g ai/ha
  Plant response rating: Wheat, Spring: 20
[8]; 62 g ai/ha
  Plant response rating: Wheat, Spring: 25
[8]; 125 g ai/ha
  Plant response rating: Wheat, Spring: 35
[8]; 250 g ai/ha
  Plant response rating: Wheat, Spring: 45
[9]; 31 g ai/ha
  Plant response rating: Wheat, Winter: 15
[9]; 62 g ai/ha
  Plant response rating: Wheat, Winter: 15
[9]; 125 g ai/ha
  Plant response rating: Wheat, Winter: 25
[9]; 250 g ai/ha
  Plant response rating: Wheat, Winter: 35
[10]; 31 g ai/ha
  Plant response rating: Oat, Wild: 25
[10]; 62 g ai/ha
  Plant response rating: Oat, Wild: 30
[10]; 125 g ai/ha
  Plant response rating: Oat, Wild: 35
[10]; 250 g ai/ha
  Plant response rating: Oat, Wild: 45
[11]; 31 g ai/ha
  Plant response rating: Bluegrass: 10
[11]; 62 g ai/ha
  Plant response rating: Bluegrass: 20
[11]; 125 g ai/ha
  Plant response rating: Bluegrass: 35
[11]; 250 g ai/ha
  Plant response rating: Bluegrass: 55
